Reference: patent US20230365558A1, “TETRAHYDROISOQUINOLINE DERIVATIVE AND USE THEREOF” (MEDSHINE DISCOVERY INC., priority 2020, published 2023)
Where two headings read alike, the source gives them in different places. One block for each molecule: values may come before it.

Legend:
[1] = tested on: Z-138 non-Hodgkin's lymphoma cells; test: In vitro anti-proliferation assay of Z-138 cells (CellTiter-Glo, 6 days); format: cell-based, human; details: read-out: IC50 (nM), in vitro anti-proliferative activity on Z-138 tumor cells
Description: The plate was incubated at 37° C., CO2 and 100% relative humidity for 6 days. Samples were processed using Promega CellTiter-Glo Luminescent Cell Viability Assay Kit (Promega-G7571) standard method, and the luminescent signal was detected on a TECAN Spark®10M plate reader. Raw data were used to calculate the inhibition rate of the test compounds using the following equation: […]
(§1) The inhibition rates were imported into Excel separately to calculate the inhibition rates of compounds at different concentrations, and then XLfit software was used to plot inhibition curves and calculate relevant parameters, including minimum inhibition rate, maximum inhibition rate and IC50.

[2] = Pharmacokinetic evaluation in CD-1 mice; details: CD-1 mice
Description: Experimental objective: To study the pharmacokinetic parameters of the compounds in CD-1 mice
Animal experimental design: Male CD-1 mice (28.08 to 29.01 g, 6 to 7 weeks old), purchased from Shanghai Family Planning Research Institute, n=2/group, 4 mice in total; blood collection time points (h): 0.083 (intravenous injection only), 0.25 (intragastric administration only), 0.5, 1, 2, 4, 8, 10 and 24; compound dose by tail vein injection: 1 mg/kg; single dose by intragastric administration: 5 mg/kg; intravenous and intragastric administration vehicles: 20% N,N-dimethylacetamide aqueous solution, 20% hydroxypropyl-β-cyclodextrin aqueous solution, 5% DMSO/50% PEG400/45% water for injection or 10% Solutol/30% PEG400/60% water for injection. All animals had free access to water during the experiment, fasted overnight before administration, and resumed food supply 4 hours after administration. The entire animal experiment complied with the Institutional Animal Care and Use Committee (IACUC) animal welfare.
Sample collection and storage: After administration, approximately 0.03 mL of blood was collected from the saphenous vein of the mouse at each time point into a pre-frozen commercial EDTA-K2 tube, and placed on wet ice until centrifugation. Blood samples were centrifuged at 4° C., 3,200 g for 10 min. Plasma was collected separately, transferred to a pre-labeled 96-well plate, fast frozen on dry ice, and stored at −70±10° C. until LC-MS/MS analysis.
Pre-treatment of plasma samples: 3 μL of unknown, standard curve, QC, diluted QC and single and double blank samples were taken and placed in 1.5 mL tubes, and 60 μL of internal standard solution (internal standard: Labetalol 100 ng/mL acetonitrile solution, double blank with the same volume of pure acetonitrile) was added. The samples were vortexed for at least 15 seconds, and centrifuged at 4° C., 12,000 g for 15 min. 50 μL of the supernatant was taken and placed on a clean 96-well plate, and 200 μL of 70% acetonitrile was added. The plate was vortex at 800 rpm for 10 min, and centrifuged at 4° C., 3,220 g for 5 min. 2.0 μL of the supernatant was taken for LC-MS/MS analysis. 10-fold sample dilution procedure: 2 μL of the sample was added to 18 μL of blank matrix; 2-fold sample dilution procedure: 2 μL of the sample was added to 2 μL of blank matrix. Plasma was processed in the same manner as undiluted samples. The linear range was 4.00 to 6000 nM. Plasma concentrations would be analyzed with Triple Quad 6500 Plus, and pharmacokinetic parameters would be calculated with Phoenix WinNonlin 6.3.

[3] = target: PRMT5 enzyme (Homo sapiens (Human), UniProt O14744); test: PRMT5 enzyme inhibitory activity assay (LANCE Ultra TR-FRET); format: biochemical
Description: Experimental objective: To test the inhibitory effect of compounds on PRMT5 enzyme activity
Experimental materials: PRMT5 enzyme
The plate was incubated at 25° C. for 30 min, then added with substrate, and reacted at 25° C. for 90 min. After 90 min, the detection reagent was added to the 384-well plate using PerkinElmer LANCE Ultra TR-FRET standard method to combine with the enzyme-substrate reaction product. […] Raw data were used to calculate the inhibition rate of the test compounds using the following equation: […]
as §1

[4] = tested on: MDA-MB-468 human breast cancer cells; test: Anti-proliferative activity on MDA-MB-468 cells (CellTiter-Glo, 7 days); format: cell-based; details: read-out: IC50 (nM), in vitro anti-proliferative activity on MDA-MB-468 tumor cells
Description: CellTiter-Glo (chemiluminescent cell viability detection reagent, purchased from Promega).
MDA-MB-468 cells were planted in a white 384-well plate with 40 μL of cell suspension per well, which contained 1000 MDA-MB-468 cells. The cell plate was cultured in a CO2 incubator overnight. […] 78 μL of culture medium was added to a middle plate, and then 2 μL of gradient diluted compound per well was transferred to the middle plate according to the corresponding position. After being thoroughly mixed, 10 μL per well was transferred to the cell plate. […] The cell plate was cultured in a CO2 incubator for 7 days. Another cell plate was prepared, and the signal value was read on the day of administration as the maximum value (Max value in the equation below) to participate in data analysis. 10 μL of chemiluminescent cell viability detection reagent per well was added to the cell plate, and the plate was incubated at room temperature for 10 min to stabilize the luminescent signal. A multi-label analyzer was used for reading. After the incubation of the cell plate with the compound was completed, 10 μL of chemiluminescent cell viability detection reagent per well was added to the cell plate, and the plate was incubated at room temperature for 10 min to stabilize the luminescent signal. A multi-label analyzer was used for reading.

[5] = tested on: human mantle cell lymphoma Z-138 cells; details: Z-138 xenograft; for T/C (%) (Day 21) / TGI (%) (Day 21): 80 mg/kg PO BID × 21, Day 21; for RTV (Day 21) / Tumor volume (Day 21): 80 mg/kg PO BID × 21, Day 21, Mean ± SEM; for Tumor volume (Day 21) / Tumor volume (Day 0): n = 6; for Tumor volume (Day 0): Day 0 (at grouping), Mean ± SEM
[6] = tested on: human breast cancer MDA-MB-468 cells; test: Subcutaneous xenograft tumor BALB/c mouse model of human breast cancer MDA-MB-468 cells; format: in vivo; details: MDA-MB-468 xenograft
Description: Experimental materials: 6 to 8 weeks old Balb/c female mice
Routine digestion with trypsin-EDTA was performed twice a week for passaging.
Group administration was started when the average tumor volume reached 130 mm^3.

[7] = Hygroscopicity by dynamic vapor sorption (DVS); format: physicochemical; details: 25° C./80% RH
Description: (3) Dynamic Vapor Sorption (DVS) Method
Detailed DVS instrument information and parameters are shown in Table 5, and the classification of hygroscopicity evaluation is shown in Table 6:
Instrument: SMS DVS intrinsic Dynamic Vapor Sorption. The crystal form A of compound 46a (about 10 mg) was taken and placed in a DVS sample tray for testing.

[8] = injection administration (1 mg/kg)
[9] = 100 mg/kg PO BID × 4 W, Day 28, Mean ± SEM

Sequence of PRMT5 enzyme (O14744 whole entry): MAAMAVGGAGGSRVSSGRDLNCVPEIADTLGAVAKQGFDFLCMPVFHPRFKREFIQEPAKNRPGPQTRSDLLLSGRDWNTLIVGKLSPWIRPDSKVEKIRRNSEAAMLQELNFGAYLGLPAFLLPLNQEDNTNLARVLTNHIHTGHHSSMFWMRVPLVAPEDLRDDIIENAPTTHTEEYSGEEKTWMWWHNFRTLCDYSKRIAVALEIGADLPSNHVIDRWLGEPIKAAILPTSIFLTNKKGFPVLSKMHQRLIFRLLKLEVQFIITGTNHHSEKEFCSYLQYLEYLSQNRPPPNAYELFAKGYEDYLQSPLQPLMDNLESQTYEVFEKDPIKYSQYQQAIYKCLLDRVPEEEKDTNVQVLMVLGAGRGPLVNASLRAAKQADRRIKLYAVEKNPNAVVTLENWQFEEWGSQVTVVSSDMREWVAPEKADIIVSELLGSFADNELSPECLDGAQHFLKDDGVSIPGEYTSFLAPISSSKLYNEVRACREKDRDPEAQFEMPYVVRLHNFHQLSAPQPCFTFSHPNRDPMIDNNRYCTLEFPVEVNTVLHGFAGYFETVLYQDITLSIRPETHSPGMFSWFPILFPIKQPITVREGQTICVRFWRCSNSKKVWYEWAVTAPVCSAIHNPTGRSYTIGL
Sequence of PRMT5 enzyme (Q9BQA1 whole entry partner): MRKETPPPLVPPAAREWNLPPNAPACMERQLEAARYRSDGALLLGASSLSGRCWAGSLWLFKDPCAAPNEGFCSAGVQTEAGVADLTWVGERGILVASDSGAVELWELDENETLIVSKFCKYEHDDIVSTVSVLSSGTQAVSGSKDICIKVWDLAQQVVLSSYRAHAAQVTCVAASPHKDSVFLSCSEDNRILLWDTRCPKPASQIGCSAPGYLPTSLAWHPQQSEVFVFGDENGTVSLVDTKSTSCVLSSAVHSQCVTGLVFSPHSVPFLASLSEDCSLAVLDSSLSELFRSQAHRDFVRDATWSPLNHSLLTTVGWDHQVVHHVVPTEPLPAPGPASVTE

SMILES: O=C(NC[C@H](O)CN1CCc2ccccc2C1)c1cnc2c(c1)NC(=O)C1(CC1)C2 [Compound 39]
IC50 [1]: 12 nM
Clearance rate CL [2, 8]: 33.6 mL/min/kg
Concentration integral AUC [2, 8]: 1.214 µM·h
Half-life T1/2 [2, 8]: 33 min
Bioavailability F ([2]; oral administration (5 mg/kg)): 20.0%
Concentration integral AUC ([2]; oral administration (5 mg/kg)): 1.208 µM·h
IC50 [3]: 34 nM
IC50 [4]: 12 nM
T/C (%) (Day 21) [5]: 12.1%
TGI (%) (Day 21) [5]: 94.8%
RTV (Day 21) [5]: 1.66 + 0.42
Tumor volume (Day 21) [5]: 179 + 42 mm^3
Tumor volume (Day 0) [5]: 108 ± 7 mm^3

IC50 ([1]; Homo sapiens, Z-138, 144 h): 11 nM
IC50 [3]: 58 nM
IC50 ([4]; Homo sapiens, 168 h): 5 nM
SMILES: C[C@H](NC(=O)c1cnc2c(c1)NC(=O)C1(CC1)O2)[C@H](O)CN1CCc2ccccc2C1 [Compound 46a]
T/C (%) ([6]; 100 mg/kg PO BID × 4 W, Day 28): 33.29%
TGI (%) ([6]; 100 mg/kg PO BID × 4 W, Day 28): 107.01%
RTV (Day 28) [6, 9]: 0.88 ± 0.06
Tumor volume (Day 28) [6, 9]: 115 ± 13.8 mm^3
Tumor volume (Day 0) ([6]; Day 0 (at grouping), Mean ± SEM): 130 ± 10.5 mm^3
T/C (%) (Day 21) [5]: 1.7%
TGI (%) (Day 21) [5]: 105.8%
RTV (Day 21) [5]: 0.24 + 0.11
Tumor volume (Day 21) [5]: 27 + 13 mm^3
Tumor volume (Day 0) [5]: 107 ± 8 mm^3

Hygroscopicity classification [7]: slightly hygroscopic
moisture absorption weight gain ΔW % [7]: 0.8%
SMILES: C[C@H](NC(=O)c1cnc2c(c1)NC(=O)C1(CC1)O2)[C@H](O)CN1CCc2ccccc2C1 [crystal form A of compound 46a]
